For 15 molecules, EC50 results are on record in patent US20240246964A1 (Arbutus Biopharma Corporation, priority 2021, published 2024).

The experiment deals with human PD-L1 (Homo sapiens (Human), UniProt Q9NZQ7). As to the kind of experiment: T cell activation luciferase reporter cell culture system (T Cell Activation Assay). Particulars: luciferase reporter assay; PD-L1 aAPC/CHO-K1 cells with PD-1 effector Jurkat T cells. The experiment is classed as cell-based. Background: In a reporter assay the amount or activity of a reporter protein is the signal.
Chain of human PD-L1 (Q9NZQ7 19-290): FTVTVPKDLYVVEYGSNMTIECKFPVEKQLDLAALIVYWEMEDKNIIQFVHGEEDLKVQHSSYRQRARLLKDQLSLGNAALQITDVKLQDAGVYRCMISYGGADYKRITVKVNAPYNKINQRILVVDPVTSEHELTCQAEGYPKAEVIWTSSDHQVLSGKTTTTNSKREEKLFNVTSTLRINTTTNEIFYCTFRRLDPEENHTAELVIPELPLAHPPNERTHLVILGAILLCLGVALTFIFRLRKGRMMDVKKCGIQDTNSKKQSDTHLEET
Broadly, the EC50 is the concentration at which the effect is half-maximal. Higher therefore signals a less potent agent. For `COc1cc(-c2nccc(-c3cccc(-c4ccc(CNC5CCN(C(=O)N(C)C)CC5)c(OC)n4)c3Cl)c2Cl)ccc1CNC1CCN(C(=O)N(C)C)CC1` [Example 419, 4-(((6-(2-Chloro-3-(3-chloro-2-(4-(((1-(dimethylcarbamoyl)piperidin-4-yl)amino)methyl)-3-methoxyphenyl)pyridin-4-yl)phenyl)-2-methoxypyridin-3-yl)methyl)amino)-N,N-dimethylpiperidine-1-carboxamide], a half-maximal response (EC50) required 19.5 nM.
`COc1cc(-c2nccc(-c3cccc(-c4ccc(CNC5CCN(CC(F)F)CC5)c(OC)n4)c3Cl)c2Cl)ccc1CNC1CCN(CC(F)F)CC1` [Example 420, N-((6-(2-Chloro-3-(3-chloro-2-(4-(((1-(2,2-difluoroethyl)piperidin-4-yl)amino)methyl)-3-methoxyphenyl)pyridin-4-yl)phenyl)-2-methoxypyridin-3-yl)methyl)-1-(2,2-difluoroethyl)piperidin-4-amine] registered an EC50 of 42.6 nM.
`COc1cc(-c2nccc(-c3cccc(-c4ccc(CN5CCC(NC(C)=O)CC5)c(OC)n4)c3Cl)c2Cl)ccc1CNC1CCOCC1` [Example 432, N-(1-((6-(2-Chloro-3-(3-chloro-2-(3-methoxy-4-(((tetrahydro-2H-pyran-4-yl)amino)methyl)phenyl)pyridin-4-yl)phenyl)-2-methoxypyridin-3-yl)methyl)piperidin-4-yl)acetamide] showed an EC50 of 52.1 nM.
In the case of `COc1cc(-c2nccc(-c3cccc(-c4ccc(CN5CC6(CNC(=O)C6)C5)c(OC)n4)c3Cl)c2C#N)ccc1CN1CC2(CNC(=O)C2)C1` [Example 433, 4-(2-Chloro-3-(6-methoxy-5-((7-oxo-2,6-diazaspiro[3.4]octan-2-yl)methyl)pyridin-2-yl)phenyl)-2-(3-methoxy-4-((7-oxo-2,6-diazaspiro[3.4]octan-2-yl)methyl)phenyl)nicotinonitrile], the EC50 amounted to 39.9 nM.
For the molecule `COc1cc(-c2nccc(-c3cccc(-c4ccc(CNC5CCOCC5)c(OC)n4)c3Cl)c2C#N)ccc1CNC1CCOCC1` [Example 434, 4-(2-Chloro-3-(6-methoxy-5-(((tetrahydro-2H-pyran-4-yl)amino)methyl)pyridin-2-yl)phenyl)-2-(3-methoxy-4-(((tetrahydro-2H-pyran-4-yl)amino)methyl)phenyl)nicotinonitrile], a half-maximal effect (EC50) was put at 37.8 nM.
Take `COc1cc(-c2nccc(-c3cccc(-c4ccc(CN5CC[C@H](O)C5)c(OC)n4)c3Cl)c2Cl)ccc1CN1CC[C@H](O)C1` [Example 435, (S)-1-((6-(2-Chloro-3-(3-chloro-2-(4-(((S)-3-hydroxypyrrolidin-1-yl)methyl)-3-methoxyphenyl)pyridin-4-yl)phenyl)-2-methoxypyridin-3-yl)methyl)pyrrolidin-3-ol]: a half-maximal response (EC50) required 9.95 nM.
The same measure for `COc1cc(-c2nccc(-c3cccc(-c4ccc(CN(C)C5CCOCC5)c(OC)n4)c3Cl)c2Cl)ccc1CNC1CCN(C(C)=O)CC1` [Example 436, 1-(4-((4-(3-chloro-4-(2-chloro-3-(6-methoxy-5-((methyl(tetrahydro-2H-pyran-4-yl)amino)methyl)pyridin-2-yl)phenyl)pyridin-2-yl)-2-methoxybenzyl)amino)piperidin-1-yl)ethan-1-one]: 134 nM.
The same measure for `COc1cc(-c2nccc(-c3cccc(-c4ccc(CNC5CCN(CC(F)(F)F)CC5)c(OC)n4)c3Cl)c2Cl)ccc1CNC1CCN(CC(F)(F)F)CC1` [Example 437, N-((6-(2-Chloro-3-(3-chloro-2-(3-methoxy-4-(((1-(2,2,2-trifluoroethyl)piperidin-4-yl)amino)methyl)phenyl)pyridin-4-yl)phenyl)-2-methoxypyridin-3-yl)methyl)-1-(2,2,2-trifluoroethyl)piperidin-4-amine]: 157 nM.
For the molecule `COc1cc(-c2nccc(-c3cccc(-c4ccc(CNC5CCN(C(=O)CO)CC5)c(OC)n4)c3Cl)c2Cl)ccc1CNC1CCN(C(=O)CO)CC1` [Example 443, 1-(4-(((6-(2-Chloro-3-(3-chloro-2-(4-(((1-(2-hydroxyacetyl)piperidin-4-yl)amino)methyl)-3-methoxyphenyl)pyridin-4-yl)phenyl)-2-methoxypyridin-3-yl)methyl)amino)piperidin-1-yl)-2-hydroxyethan-1-one], the response was half-maximal at 10.5 nM (EC50).
The figure for `COc1cc(-c2nccc(-c3cccc(-c4ccc(CNC5CCN(c6ccccn6)CC5)c(OC)n4)c3Cl)c2Cl)ccc1CNC1CCN(c2ccccn2)CC1` [Example 444, N-((6-(2-Chloro-3-(3-chloro-2-(3-methoxy-4-(((1-(pyridin-2-yl)piperidin-4-yl)amino)methyl)phenyl)pyridin-4-yl)phenyl)-2-methoxypyridin-3-yl)methyl)-1-(pyridin-2-yl)piperidin-4-amine] is at least 10000 nM.
Turning to `COc1cc(-c2nccc(-c3cccc(-c4ccc(CNC5CCN(c6ncccc6Cl)CC5)c(OC)n4)c3Cl)c2Cl)ccc1CNC1CCN(c2ncccc2Cl)CC1` [Example 445, N-((6-(2-Chloro-3-(3-chloro-2-(4-(((1-(3-chloropyridin-2-yl)piperidin-4-yl)amino)methyl)-3-methoxyphenyl)pyridin-4-yl)phenyl)-2-methoxypyridin-3-yl)methyl)-1-(3-chloropyridin-2-yl)piperidin-4-amine], the EC50 is at least 10000 nM.
Consider `COc1cc(-c2nccc(-c3cccc(-c4ccc(CN5CCC(OC)CC5)c(OC)n4)c3Cl)c2Cl)ccc1CN1CCC(OC)CC1` [Example 447, 3-Chloro-4-(2-chloro-3-(6-methoxy-5-((4-methoxypiperidin-1-yl)methyl)pyridin-2-yl)phenyl)-2-(3-methoxy-4-((4-methoxypiperidin-1-yl)methyl)phenyl)pyridine], for which the EC50 is 61.3 nM.
With `COc1cc(-c2nccc(-c3cccc(-c4ccc(CN[C@H]5CC[C@@H](OC)CC5)c(OC)n4)c3Cl)c2Cl)ccc1CN[C@H]1CC[C@@H](OC)CC1` [Example 448, (1s,4s)-N-((6-(2-Chloro-3-(3-chloro-2-(3-methoxy-4-((((1s,4s)-4-methoxycyclohexyl)amino)methyl)phenyl)pyridin-4-yl)phenyl)-2-methoxypyridin-3-yl)methyl)-4-methoxycyclohexan-1-amine], a half-maximal effect (EC50) was put at 76.3 nM.
With `COc1cc(-c2nccc(-c3cccc(-c4ccc(CN5CC6(CNC(=O)C6)C5)c(OC)n4)c3F)c2F)ccc1CN1CC2(CNC(=O)C2)C1` [Example 451, 2-(4-(3-Fluoro-4-(2-fluoro-3-(6-methoxy-5-((7-oxo-2,6-diazaspiro[3.4]octan-2-yl)methyl)pyridin-2-yl)phenyl)pyridin-2-yl)-2-methoxybenzyl)-2,6-diazaspiro[3.4]octan-7-one], the EC50 is 1970 nM. Compared with the last molecule, the EC50 is about 26-fold higher.
Regarding `COc1nc(-c2cccc(-c3ccnc(-c4cc(OC)c5nc(CN[C@H]6CC[C@H](O)CC6)cn5c4)c3Cl)c2Cl)ccc1CN[C@H]1CC[C@H](O)CC1` [Example 453, (1r,4r)-4-(((6-(2-Chloro-3-(3-chloro-2-(2-((((1r,4r)-4-hydroxycyclohexyl)amino)methyl)-8-methoxyimidazo[1,2-a]pyridin-6-yl)pyridin-4-yl)phenyl)-2-methoxypyridin-3-yl)methyl)amino)cyclohexan-1-ol], the midpoint of the response, the EC50, lay at 270 nM.
